In the supplement of paper PMC11451515:

Legend:
Experiment in all cases: AUC of viability dose-response curve (% viability x log10 dose units); higher = less sensitive
Settings in all cases: 48 h
P12-Ichikawa = test system: P12-Ichikawa
Method in brief: (§1)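 Leukemia cells adapted to each medium (500 or 1000 cells/well, 1536-well plates) were exposed to library compounds in DMSO for 48 h at 37°C at 11 threefold doses, 47 μM to 0.79 nM. Luminescence by CellTiter-Glo One was normalised per plate to DMSO and cell-free wells, then fitted with a four-parameter log-logistic curve on log10 dose. Curves above full viability were scaled and quality-control failures removed before area under the curve was integrated by trapezoidal rule.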

NOMO1 = test system: NOMO1
Method in brief: as §1

SEM cells = test system: SEM cells
Method in brief: as §1

[1] = RPMI 5 mM glucose + 10% dialyzed FBS

| Compound | AUC of viability dose-response curve (P12-Ichikawa; HPLM + 10% dialyzed FBS) | AUC of viability dose-response curve (P12-Ichikawa; RPMI 5 mM glucose + 10% FBS) | AUC of viability dose-response curve (P12-Ichikawa; [1]) | AUC of viability dose-response curve (NOMO1; HPLM + 10% dialyzed FBS) | AUC of viability dose-response curve (NOMO1; RPMI 5 mM glucose + 10% FBS) | AUC of viability dose-response curve (NOMO1; [1]) | AUC of viability dose-response curve (SEM cells; HPLM + 10% dialyzed FBS) | AUC of viability dose-response curve (SEM cells; RPMI 5 mM glucose + 10% FBS) | AUC of viability dose-response curve (SEM cells; [1]) |
| --- | --- | --- | --- | --- | --- | --- | --- | --- | --- |
| CC(C)c1ccccc1Cc1cc(C(=O)Nc2ccc([S+](=O)([O-])c3ccccc3C(C)(C)C)cc2)c(O)c(O)c1O | 451 | 460 | 457 | 408 | 467 | 464 | 449 | 426 | 422 |
| CN(C)CCCNC(=O)c1ccc(-c2cc(O)c3ncccc3c2)cc1 | 467 | 459 | 450 | 458 | 434 | 463 | 443 | 442 | 445 |
| CN(C)c1ccc2cc(C(=O)N[C@@H](CCCNC(=N)CCl)C(=O)NCc3ccccc3)ccc2c1 | 451 | 446 | 449 | 443 | 447 | 451 | 450 | 434 | 444 |
| Cc1[nH]c(/C=C2\C(=O)Nc3ccc([S+](=O)([O-])Cc4c(Cl)cccc4Cl)cc32)c(C)c1C(=O)N1CCC[C@@H]1CN1CCCC1 | 455 | 456 | 430 | 435 | 438 | 432 | 370 | 394 | 361 |
| COc1ccnc(C[S+]([O-])c2nc3cc(OC(F)F)ccc3[nH]2)c1OC (configuration not stated) | 474 | 456 | 461 | 459 | 464 | 474 | 435 | 431 | 461 |
| N\C1=N\C2=C(N=C[N]2COC(CO)CO)C(=O)N1 | – | – | – | 445 | 449 | 448 | 444 | 387 | 449 |
| CCN(C)C(=O)Oc1cccc([C@H](C)N(C)C)c1 | 452 | 458 | 465 | 451 | 468 | 474 | 463 | 432 | 452 |
| C[C@@H]1C[C@H]2[C@@H]3CC\C4=C\C(=O)\C=C/[C@]4(C)[C@@]3(Cl)[C@@H](O)C[C@]2(C)[C@@]1(OC(=O)C5=CC=CO5)C(=O)CCl | 313 | 265 | 234 | 442 | 454 | 451 | 245 | 236 | 222 |
| NC(=O)Nc1cc(-c2ccc(CN3CCOCC3)cc2)sc1C(N)=O | 236 | 246 | 266 | 369 | 331 | 338 | 262 | 240 | 240 |
| CN1C(=O)/C=C(/NCCN(CCO)CCCC2=CC=C(C=C2)[N+]([O-])=O)N(C)C1=O | 447 | 443 | 441 | 463 | 473 | 443 | 463 | 450 | 454 |
| NCC(=O)Nc1ccc(-n2nc(C(F)(F)F)cc2-c2ccc3c(ccc4ccccc43)c2)cc1 | – | – | – | 458 | 462 | 447 | 460 | 457 | 424 |
| COc1ccc(Nc2cc(-c3cnc(N)nc3)nc(N3CCOCC3)n2)cn1 | 433 | 387 | 399 | 373 | 375 | 361 | 398 | 418 | 389 |
| O=C(CCCCCCC(=O)Nc1ccccc1)NO | 378 | 368 | 367 | 406 | 412 | 427 | 370 | 372 | 369 |
| Nc1nc(OCc2ccccc2)c2nc[nH]c2n1 | 472 | 470 | 471 | 462 | 459 | 465 | 452 | 429 | 454 |
| OCCCNc1cc(-c2ccnc(Nc3cccc(Cl)c3)n2)ccn1 | 308 | 294 | 295 | 264 | 258 | 262 | 249 | 260 | 254 |
| CNCC(O)C(O)C(O)C(O)CO.O=C(O)c1ccc(-c2cc3cccnc3c(-c3ccc4nonc4c3)n2)cc1 | 473 | 470 | 468 | 467 | 464 | 469 | 472 | 472 | 459 |
| C[N+](C)([O-])CCNc1ccc(NCC[N+](C)(C)[O-])c2c1C(=O)c1c(O)ccc(O)c1C2=O | 354 | 302 | 305 | 383 | 365 | 391 | 298 | 272 | 281 |
| CO[C@@H]1C(N(C)C(=O)c2ccccc2)C[C@H]2O[C@]1(C)n1c3ccccc3c3c4c(c5c6ccccc6n2c5c31)C(=O)NC4=O (some centres not stated) | 401 | 372 | 369 | – | – | – | 324 | 289 | 327 |
| COc1cc([C@@H]2c3cc4c(cc3[C@@H](O[C@@H]3O[C@@H]5CO[C@@H](c6cccs6)O[C@H]5[C@H](O)[C@H]3O)[C@H]3COC(=O)[C@H]23)OCO4)cc(OC)c1O | – | – | – | – | – | – | 329 | 319 | 284 |
| O=[N+]([O-])c1cnc(Sc2nnc(O)n2-c2ccc3c(c2)OCCO3)s1 | 390 | 356 | 337 | 376 | 353 | 375 | 341 | 342 | 331 |
| C#Cc1cccc(Nc2ncnc3cc(OC)c(OCCCCCCC(=O)NO)cc23)c1 | 253 | 254 | 244 | 276 | 313 | 300 | 264 | 216 | 254 |
| COC1=CC=C(C=C1)C2CC(=N/N2C3=CC=C(C=C3)[S+](N)([O-])=O)\C4=CC=CC=C4 (configuration not stated) | 387 | 354 | 340 | 330 | 355 | 337 | 323 | 293 | 282 |
| COC[C@H]1OC(=O)C2=COC3=C2[C@@]1(C)\C4=C(\[C@@H]5CC[C@H](O)[C@@]5(C)C[C@H]4OC(C)=O)C3=O | – | – | – | 440 | 466 | 458 | – | – | – |
| CC1(C)CC(O)CC(C)(C)N1[O] | 464 | 459 | 459 | 452 | 472 | 472 | – | – | – |
